# Test results published in patent US20200390755A1, “COMPOUND FOR TREATING NERVOUS SYSTEM DISEASES AND USE THEREOF” (SHAANXI MICOT TECHNOLOGY CO., LTD., priority 2018, published 2020).
# Test system: Phospho-Akt S473
# Test: ELISA analysis of Phospho-Akt S473 in primary cortical neuron cells
# Assay type: cell-based, mouse
# Conditions: 500 nM, 10 min at 37° C.
# Description: The primary cortical neuron cells were cultured in the same way as in Example 21, and after maturity, appropriate amount of freshly prepared culture medium was added until final volume in each well was 2 mL. The experiment included a blank control group (Vehicle), a positive control group BDNF (10 ng/mL), a control compound group (500 nM), and 6 test compound groups (500 nM). Three repeats were set for each dose. After incubating at 37° C. for 10 min, the culture solution was discarded and the cells were washed with pre-chilled PBS, and then 40 μL of pre-chilled lysate (RIPA buffer 10 mL and protease and phosphatase inhibitor 100 μL) was added to each well for lysis on ice for 30 min. After lysis, the cell was crushed by ultrasonic cell crusher, centrifuged at 14000 rpm for 20 min at 4° C. The supernatant was transferred to a new 1.5 mL centrifuge tube to extract protein. The p-Akt ELISA experiment quantitatively detected the intracellular p-Akt protein level.
# A series of p-Akt standard solutions with different concentrations were prepared, and the absorbance value was measured to make a standard curve. Phospho-Akt1 (Ser473) sandwich ELISA kit was purchased from Cell Signaling Technology (catalog number 7160). The antibody was coated in a 96-well plate at 4° C. overnight and was washed. The coated plate was blocked with 2% bovine serum albumin (BSA), and after sufficient washing, 100 μL of sample diluent (supplied in the kit) was added to each well to dilute the extracted protein. The plate was incubated overnight at 4° C. After washing 4 times with 200 μL of washing buffer (supplied in the kit), 100 μL/well of detection antibody was added and the plate was incubated at 37° C. for 1 hour. After 4 washes, 100 μL of HRP-conjugated secondary antibody (supplied in the kit) was added and the plate was incubated at 37° C. for 30 minutes. After the final wash, 100 μL of TMB substrate was added to each well and the plate was incubated at 37° C. for 10 minutes. TMB was use as a substrate to detect the signal, since TMB can be oxidized to produce a blue solution. The reaction was stopped by adding 100 μL/well stop solution, and the test result can remain stable within one hour after the stop of the reaction. The value of each well at 450 nm and 650 nm was detected using a microplate reader. The optical density (OD) was determined by subtracting the reading at 650 nm (disturbance from the solution itself) from the reading at 450 nm. According to the OD value corresponding to the standard curve, the p-Akt concentration in each well was obtained.
# the data of each group was expressed as mean standard error (x±SEM). The ratio of the detection results of each positive control group (BNDF), control compound group (the same control compound as in Example 21) and each test compound group to the blank control group was used as an indicator to compare the p-Akt test results of the positive control group, control compound group, and each test compound group. One-way ANOVA and LSD post-hoc test were used to compare the measurement data among multiple groups, and P<0.05 was considered statistically significant.
row,Structure (SMILES),"Relative content of p-Akt protein (ELISA, ratio to blank control group) [%]"
1,"CN(C)C1CCN(c2ccc(-c3cc(=O)c4ccc(O)c(O)c4o3)cc2)CC1 [Example 3, 2-(4-(4-(dimethylamino)piperidin-1-yl)phenyl)-7,8-dihydroxy-4H-chromen-4-one]",247.33±3.18
2,"CC1(C)CCN(c2ccc(-c3cc(=O)c4ccc(O)c(O)c4o3)cc2)CC1 [Example 4, 2-(4-(4,4-dimethylpiperidin-1-yl)phenyl)-7,8-dihydroxy-4H-chromen-4-one]",224.33±3.27
3,"CC1CC(C)CN(c2ccc(-c3cc(=O)c4ccc(O)c(O)c4o3)cc2)C1 (stereo not drawn) [Example 5, 2-(4-(3,5-dimethylpiperidin-1-yl)phenyl)-7,8-dihydroxy-4H-chromen-4-one]",217.32±2.57

# Test system: rats with permanent cerebral ischemia
# Test: Neurobehavioral scoring in rats with permanent cerebral ischemia (MCAO thread plug)
# Assay type: in vivo, SD rats
# Conditions: 20 mg/kg by gavage, 6 h after ischemia
# Description: (§1) SD rats, male, about 220-250 g, were provided by the Experimental Animal Center of Medical College of Xi'an Jiaotong University. Rats were randomly divided into groups of 14 animals/group. The experiment included a sham group, a model group, a positive control Edaravone group and test compound groups 1-5.12 hours before the operation, the rats were fasted and were free to drink water, and then used for the modeling method of middle cerebral artery occlusion with thread plug. The rats were fixed on a wooden board after anesthesia, the common carotid artery was ligated proximally, the external carotid artery was ligated distally, and the main internal carotid artery into skull was retained. A ligature line was reserved at the bifurcation of the internal carotid artery for temporarily clamping the distal end of the internal carotid artery using an arterial clip. A 3-0 nylon thread with a length of 5 cm and a spherical shape with a diameter of 0.3 mm at the tip was inserted into the common carotid artery through a small incision at the bifurcation. The arterial clamp was loosened, and the thread plug was slowly advanced to 18˜20 mm. When there was resistance, the progress of the thread was stopped. At this time, the nylon thread plug entered the middle artery and blocked the blood flow, and then the ischemic phase began. The skin was sutured. In the sham operation group, the same procedure was executed, except that no thread plug was inserted.
# (§2) Administering was performed at 0 h, 3 h, 6 h and 12 h after ischemia, and then administering was performed once a day for 7 consecutive days. The test compound was prepared into a 4 mg/mL solution with 1% CMC-Na solution and administered by gavage. The edaravone group received an intravenous dose of 0.078 mg/kg.
# 2) The rats were lifted at its tail about 1 foot off the ground to observe the condition of both forelimbs. The rats were placed on a level ground and pushed on both shoulders to observe the difference in resistance on both sides. The rats were placed on the ground to observe the walking. The assessment was conducted using a five-grade four-point scoring method (0 to 4 points). The higher the score, the more severe the neurobehavioral damage.
# 0 point: the behavior is completely normal;
# 1 point: when the rat is lifted at its tail off the ground, the forelimb on the opposite side of the operation rotates and folds inwardly.
# 2 points: when the rat is placed on a level ground and pushed on both shoulders to observe the difference in resistance on both sides, the resistance on the opposite side of the operation reduces;
# 3 points: when the rat is placed on the ground to the walking, it circles around the opposite side of the operation;
# 4 points: The injury is so severe that the rat is unable to move independently.
# (§3) (2) Statistical analysis of data: SPSS18.0 statistical software was used for statistical analysis and the data of each group was expressed as the mean standard error (x±SEM). One-way ANOVA and multiple comparisons between groups were used to compare the averages of measurement data among multiple groups. Rank score test was used for behavioral grading data, and Kaplan-Meier method was used for mortality. P<0.05 was considered statistically significant.
row,Structure (SMILES),Neurobehavioral score (0 to 4 points)
1,"CN(C)C1CCN(c2ccc(-c3cc(=O)c4ccc(O)c(O)c4o3)cc2)CC1 [Example 3, 2-(4-(4-(dimethylamino)piperidin-1-yl)phenyl)-7,8-dihydroxy-4H-chromen-4-one]",1.98 ± 0.25
2,"CC1(C)CCN(c2ccc(-c3cc(=O)c4ccc(O)c(O)c4o3)cc2)CC1 [Example 4, 2-(4-(4,4-dimethylpiperidin-1-yl)phenyl)-7,8-dihydroxy-4H-chromen-4-one]",2.23 ± 0.36
3,"CC1CC(C)CN(c2ccc(-c3cc(=O)c4ccc(O)c(O)c4o3)cc2)C1 (stereo not drawn) [Example 5, 2-(4-(3,5-dimethylpiperidin-1-yl)phenyl)-7,8-dihydroxy-4H-chromen-4-one]",2.03 ± 0.29

# Same assay, conditions: 20 mg/kg by gavage, 1 d after ischemia
row,Structure (SMILES),Neurobehavioral score (0 to 4 points)
1,"CN(C)C1CCN(c2ccc(-c3cc(=O)c4ccc(O)c(O)c4o3)cc2)CC1 [Example 3, 2-(4-(4-(dimethylamino)piperidin-1-yl)phenyl)-7,8-dihydroxy-4H-chromen-4-one]",2.23 ± 0.34
2,"CC1(C)CCN(c2ccc(-c3cc(=O)c4ccc(O)c(O)c4o3)cc2)CC1 [Example 4, 2-(4-(4,4-dimethylpiperidin-1-yl)phenyl)-7,8-dihydroxy-4H-chromen-4-one]",1.99 ± 0.36
3,"CC1CC(C)CN(c2ccc(-c3cc(=O)c4ccc(O)c(O)c4o3)cc2)C1 (stereo not drawn) [Example 5, 2-(4-(3,5-dimethylpiperidin-1-yl)phenyl)-7,8-dihydroxy-4H-chromen-4-one]",1.86 ± 0.44

# Same assay, conditions: 20 mg/kg by gavage, 2 d after ischemia
row,Structure (SMILES),Neurobehavioral score (0 to 4 points)
1,"CN(C)C1CCN(c2ccc(-c3cc(=O)c4ccc(O)c(O)c4o3)cc2)CC1 [Example 3, 2-(4-(4-(dimethylamino)piperidin-1-yl)phenyl)-7,8-dihydroxy-4H-chromen-4-one]",1.91 ± 0.26
2,"CC1(C)CCN(c2ccc(-c3cc(=O)c4ccc(O)c(O)c4o3)cc2)CC1 [Example 4, 2-(4-(4,4-dimethylpiperidin-1-yl)phenyl)-7,8-dihydroxy-4H-chromen-4-one]",1.85 ± 0.45
3,"CC1CC(C)CN(c2ccc(-c3cc(=O)c4ccc(O)c(O)c4o3)cc2)C1 (stereo not drawn) [Example 5, 2-(4-(3,5-dimethylpiperidin-1-yl)phenyl)-7,8-dihydroxy-4H-chromen-4-one]",1.75 ± 0.25

# Same assay, conditions: 20 mg/kg by gavage, 3 d after ischemia
row,Structure (SMILES),Neurobehavioral score (0 to 4 points)
1,"CN(C)C1CCN(c2ccc(-c3cc(=O)c4ccc(O)c(O)c4o3)cc2)CC1 [Example 3, 2-(4-(4-(dimethylamino)piperidin-1-yl)phenyl)-7,8-dihydroxy-4H-chromen-4-one]",1.87 ± 0.33
2,"CC1(C)CCN(c2ccc(-c3cc(=O)c4ccc(O)c(O)c4o3)cc2)CC1 [Example 4, 2-(4-(4,4-dimethylpiperidin-1-yl)phenyl)-7,8-dihydroxy-4H-chromen-4-one]",2.23 ± 0.36
3,"CC1CC(C)CN(c2ccc(-c3cc(=O)c4ccc(O)c(O)c4o3)cc2)C1 (stereo not drawn) [Example 5, 2-(4-(3,5-dimethylpiperidin-1-yl)phenyl)-7,8-dihydroxy-4H-chromen-4-one]",1.94 ± 0.23

# Same assay, conditions: 20 mg/kg by gavage, 4 d after ischemia
row,Structure (SMILES),Neurobehavioral score (0 to 4 points)
1,"CN(C)C1CCN(c2ccc(-c3cc(=O)c4ccc(O)c(O)c4o3)cc2)CC1 [Example 3, 2-(4-(4-(dimethylamino)piperidin-1-yl)phenyl)-7,8-dihydroxy-4H-chromen-4-one]",1.74 ± 0.26
2,"CC1(C)CCN(c2ccc(-c3cc(=O)c4ccc(O)c(O)c4o3)cc2)CC1 [Example 4, 2-(4-(4,4-dimethylpiperidin-1-yl)phenyl)-7,8-dihydroxy-4H-chromen-4-one]",1.54 ± 0.27
3,"CC1CC(C)CN(c2ccc(-c3cc(=O)c4ccc(O)c(O)c4o3)cc2)C1 (stereo not drawn) [Example 5, 2-(4-(3,5-dimethylpiperidin-1-yl)phenyl)-7,8-dihydroxy-4H-chromen-4-one]",1.85 ± 0.34

# Same assay, conditions: 20 mg/kg by gavage, 5 d after ischemia
row,Structure (SMILES),Neurobehavioral score (0 to 4 points)
1,"CN(C)C1CCN(c2ccc(-c3cc(=O)c4ccc(O)c(O)c4o3)cc2)CC1 [Example 3, 2-(4-(4-(dimethylamino)piperidin-1-yl)phenyl)-7,8-dihydroxy-4H-chromen-4-one]",1.63 ± 0.20
2,"CC1(C)CCN(c2ccc(-c3cc(=O)c4ccc(O)c(O)c4o3)cc2)CC1 [Example 4, 2-(4-(4,4-dimethylpiperidin-1-yl)phenyl)-7,8-dihydroxy-4H-chromen-4-one]",1.78 ± 0.11
3,"CC1CC(C)CN(c2ccc(-c3cc(=O)c4ccc(O)c(O)c4o3)cc2)C1 (stereo not drawn) [Example 5, 2-(4-(3,5-dimethylpiperidin-1-yl)phenyl)-7,8-dihydroxy-4H-chromen-4-one]",1.93 ± 0.20

# Same assay, conditions: 20 mg/kg by gavage, 6 d after ischemia
row,Structure (SMILES),Neurobehavioral score (0 to 4 points)
1,"CN(C)C1CCN(c2ccc(-c3cc(=O)c4ccc(O)c(O)c4o3)cc2)CC1 [Example 3, 2-(4-(4-(dimethylamino)piperidin-1-yl)phenyl)-7,8-dihydroxy-4H-chromen-4-one]",1.78 ± 0.34
2,"CC1(C)CCN(c2ccc(-c3cc(=O)c4ccc(O)c(O)c4o3)cc2)CC1 [Example 4, 2-(4-(4,4-dimethylpiperidin-1-yl)phenyl)-7,8-dihydroxy-4H-chromen-4-one]",1.68 ± 0.27
3,"CC1CC(C)CN(c2ccc(-c3cc(=O)c4ccc(O)c(O)c4o3)cc2)C1 (stereo not drawn) [Example 5, 2-(4-(3,5-dimethylpiperidin-1-yl)phenyl)-7,8-dihydroxy-4H-chromen-4-one]",1.72 ± 0.44

# Same assay, conditions: 20 mg/kg by gavage, 7 d after ischemia
row,Structure (SMILES),Neurobehavioral score (0 to 4 points)
1,"CN(C)C1CCN(c2ccc(-c3cc(=O)c4ccc(O)c(O)c4o3)cc2)CC1 [Example 3, 2-(4-(4-(dimethylamino)piperidin-1-yl)phenyl)-7,8-dihydroxy-4H-chromen-4-one]",1.01 ± 0.27
2,"CC1(C)CCN(c2ccc(-c3cc(=O)c4ccc(O)c(O)c4o3)cc2)CC1 [Example 4, 2-(4-(4,4-dimethylpiperidin-1-yl)phenyl)-7,8-dihydroxy-4H-chromen-4-one]",1.12 ± 0.23
3,"CC1CC(C)CN(c2ccc(-c3cc(=O)c4ccc(O)c(O)c4o3)cc2)C1 (stereo not drawn) [Example 5, 2-(4-(3,5-dimethylpiperidin-1-yl)phenyl)-7,8-dihydroxy-4H-chromen-4-one]",1.19 ± 0.30

# Test system: rats with permanent cerebral ischemia
# Test: Cerebral infarction volume by TTC staining in rats with permanent cerebral ischemia
# Assay type: in vivo, SD rats
# Conditions: 20 mg/kg by gavage, after 7 days of ischemia
# Description: as §1, §2
# 3) Percentage of cerebral infarction volume after 7 days of ischemia: TTC staining was used to observe the infarct area.
# The rats in each group were sacrificed by spinal dislocation […]. The brain tissue was quickly peeled off and placed in the refrigerator at −20° C. to freeze to an appropriate hardness to remove the olfactory bulb, cerebellum and low brain stem. Continuous coronary slices were performed at 1 mm intervals, to obtain a total of 5 slices. The slices were placed in 0.5% triphenyltetrazolium chloride (TTC) in phosphate buffer (pH=7.4) and incubated in a 37° C. incubator without light for 15 min, and then fixed in paraformaldehyde and observed (fixed time should be within 24 h). The normal brain tissue is rosy red, and infarcted brain tissue is pale. After taking the picture, the slice was scanned to save the image. The area of cerebral infarction and the total area of slices were calculated using Image J processing software.
# Cerebral infarction volume (%)=(volume of the contralateral hemisphere of the operation−volume of the uninfarcted portion of the hemisphere of the occlusion)/volume of the contralateral hemisphere of the operation×100%
# as §3
row,Structure (SMILES),Volume percentage of cerebral infarction [%]
1,"CN(C)C1CCN(c2ccc(-c3cc(=O)c4ccc(O)c(O)c4o3)cc2)CC1 [Example 3, 2-(4-(4-(dimethylamino)piperidin-1-yl)phenyl)-7,8-dihydroxy-4H-chromen-4-one]",20.93 ± 7.65
2,"CC1(C)CCN(c2ccc(-c3cc(=O)c4ccc(O)c(O)c4o3)cc2)CC1 [Example 4, 2-(4-(4,4-dimethylpiperidin-1-yl)phenyl)-7,8-dihydroxy-4H-chromen-4-one]",21.33 ± 7.68
3,"CC1CC(C)CN(c2ccc(-c3cc(=O)c4ccc(O)c(O)c4o3)cc2)C1 (stereo not drawn) [Example 5, 2-(4-(3,5-dimethylpiperidin-1-yl)phenyl)-7,8-dihydroxy-4H-chromen-4-one]",20.50 ± 6.38
